Here are results for 14 molecules from patent publication US8658791B2, “2-substituted-6-amino-5-alkyl, alkenyl or alkynyl-4-pyrimidinecarboxylic acids and 6-substituted-4-amino-3-alkyl, alkenyl or alkynyl picolinic acids and their use as herbicides” (Dow AgroSciences, LLC, priority 2007, dated 2014).

Counter-ions that a name gives are not always drawn.

The test system of series [1] is lambsquarter (Chenopodium album). In words: General postemergence herbicidal activity, CHEAL. Format: in vivo. The note with it: postemergence spray, visual score after 14 days, 0 = no injury, 100 = complete kill; for pest or weed control at 280 g/ha / pest or weed control at 140 g/ha: Chenopodium album, post-emergence, 336 h, read-out: Post-emergent Weed Control CHEAL; for pest or weed control at 280 g/ha: 280 g ai/ha; for pest or weed control at 140 g/ha: 140 g ai/ha. The method, then:
(§1) Seeds or nutlets of the desired test plant species were planted in Sun Gro MetroMix® 306 planting mixture, which typically has a pH of 6.0 to 6.8 and an organic matter content of about 30 percent, in plastic pots with a surface area of 103 square centimeters. When required to ensure good germination and healthy plants, a fungicide treatment and/or other chemical or physical treatment was applied. The plants were grown for 7-21 days in a greenhouse with an approximate 15 hour photoperiod which was maintained at about 23-29° C. during the day and 22-28° C. during the night. Nutrients and water were added on a regular basis and supplemental lighting was provided with overhead metal halide 1000-Watt lamps as necessary. The plants were employed for testing when they reached the first or second true leaf stage.
(§2) A weighed amount, determined by the highest rate to be tested, of each test compound was placed in a 25 mL glass vial and was dissolved in 4 mL of a 97:3 v/v (volume/volume) mixture of acetone and dimethyl sulfoxide (DMSO) to obtain concentrated stock solutions. […] The concentrated stock solutions obtained were diluted with 20 mL of an aqueous mixture containing acetone, water, isopropyl alcohol, DMSO, Atplus 411F crop oil concentrate, and Triton® X-155 surfactant in a 48.5:39:10:1.5:1.0:0.02 v/v ratio to obtain spray solutions containing the highest application rates. Additional application rates were obtained by serial dilution of 12 mL of the high rate solution into a solution containing 2 mL of 97:3 v/v (volume/volume) mixture of acetone and dimethyl sulfoxide (DMSO) and 10 mL of an aqueous mixture containing acetone, water, isopropyl alcohol, DMSO, Atplus 411F crop oil concentrate, and Triton X-155 surfactant in a 48.5:39:10:1.5:1.0:0.02 v/v ratio to obtain 1/2X, 1/4X, 1/8X and 1/16X rates of the high rate. Compound requirements are based upon a 12 mL application volume at a rate of 187 L/ha. Formulated compounds were applied to the plant material with an overhead Mandel track sprayer equipped with a 8002E nozzles calibrated to deliver 187 L/ha over an application area of 0.503 square meters at a spray height of 18 inches (43 cm) above the average plant canopy height. Control plants were sprayed in the same manner with the solvent blank.
(§3) The treated plants and control plants were placed in a greenhouse as described above and watered by sub-irrigation to prevent wash-off of the test compounds. After 14 days, the condition of the test plants as compared with that of the untreated plants was determined visually and scored on a scale of 0 to 100 percent where 0 corresponds to no injury and 100 corresponds to complete kill.

The test system of the next series is rice (Oryza sativa). In words: General postemergence herbicidal activity, ORYSA. The class given is in vivo. The note with it: postemergence spray, visual score after 14 days, 0 = no injury, 100 = complete kill; for plant injury at 280 g/ha / plant injury at 140 g/ha: Oryza sativa, post-emergence, 336 h, read-out: Post-emergent Weed Control ORYSA; for plant injury at 280 g/ha: 280 g ai/ha; for plant injury at 140 g/ha: 140 g ai/ha. The method, then:
as §1, §2, §3

Series [2] has as its system barnyardgrass (Echinochloa crus-galli). In words: General postemergence herbicidal activity, ECHCG. The class given is in vivo. The settings on record: postemergence spray, visual score after 14 days, 0 = no injury, 100 = complete kill; for pest or weed control at 280 g/ha / pest or weed control at 140 g/ha: Echinochloa crus-galli, post-emergence, 336 h, read-out: Post-emergent Weed Control ECHCG; for pest or weed control at 280 g/ha: 280 g ai/ha; for pest or weed control at 140 g/ha: 140 g ai/ha. The method, then: as §1, §2, §3

Series [3] relates to wild poinsettia (Euphorbia heterophylla). In words: General postemergence herbicidal activity, EPHHL. Format: in vivo. The settings on record: postemergence spray, visual score after 14 days, 0 = no injury, 100 = complete kill; for pest or weed control at 280 g/ha / pest or weed control at 140 g/ha: Euphorbia heterophylla, post-emergence, 336 h, read-out: Post-emergent Weed Control EPHHL; for pest or weed control at 280 g/ha: 280 g ai/ha; for pest or weed control at 140 g/ha: 140 g ai/ha. The method, then:
as §1, §2, §3

Series [4] concerns velvetleaf (Abutilon theophrasti). Nature of the series: General postemergence herbicidal activity, ABUTH. Format: in vivo. The settings on record: postemergence spray, visual score after 14 days, 0 = no injury, 100 = complete kill; for pest or weed control at 280 g/ha / pest or weed control at 140 g/ha: Abutilon theophrasti, post-emergence, 336 h, read-out: Post-emergent Weed Control ABUTH; for pest or weed control at 280 g/ha: 280 g ai/ha; for pest or weed control at 140 g/ha: 140 g ai/ha. The method, then:
as §1, §2, §3

`C=Cc1c(N)nc(-c2ccc(Cl)cc2)nc1C(=O)OC` [Compound 6, 6-Amino-2-(4-chlorophenyl)-5-vinylpyrimidine-4-carboxylic acid methyl ester] had a melting point of 164 to 167 °C. The pest or weed control at 280 g/ha in series [1] was found to be 90%. Further, the plant injury at 280 g/ha in the series on rice (Oryza sativa) was found to be 0%. Also, the pest or weed control at 280 g/ha in series [2] stood at 80%. Moreover, in series [3], the pest or weed control at 280 g/ha came out at 70%. Also, the pest or weed control at 280 g/ha in series [4] is 100%.

For `C=Cc1c(N)nc(-c2ccc(Cl)c(OC)c2)nc1C(=O)OC` [Compound 7, 6-Amino-2-(4-chloro-3-methoxyphenyl)-5-vinylpyrimidine-4-carboxylic acid methyl ester], the melting point fell in the range of 144 to 148 °C. In addition, in series [1], the pest or weed control at 280 g/ha is 95%. Further, in the series with rice (Oryza sativa), the plant injury at 280 g/ha came to 0%. In series [2], the pest or weed control at 280 g/ha is 0%. The pest or weed control at 280 g/ha in series [3] was 70%. Moreover, the pest or weed control at 280 g/ha in series [4] was 60%.

For the molecule `C=Cc1c(N)nc(-c2cc(OC)c(Cl)cc2F)nc1C(=O)OC` [Compound 8, 6-Amino-2-(4-chloro-2-fluoro-5-methoxyphenyl)-5-vinylpyrimidine-4-carboxylic acid methyl ester], the melting point was in the range of 161 to 164 °C. Also, the pest or weed control at 280 g/ha in series [1] was determined as 100%. Besides, the plant injury at 280 g/ha in the series with rice (Oryza sativa) turned out to be 0%. Besides, the pest or weed control at 280 g/ha in series [2] came to 100%. Moreover, the pest or weed control at 280 g/ha in series [3] was determined as 50%. Moreover, the pest or weed control at 280 g/ha in series [4] was determined as 100%.

As for `COC(=O)c1nc(-c2ccc(Cl)c(OC)c2F)cc(N)c1C(F)F` [Compound 36, 4-Amino-6-(4-chloro-2-fluoro-3-methoxyphenyl)-3-difluoromethylpyridine-2-carboxylic acid methyl ester], the pest or weed control at 280 g/ha in series [1] came to 95%; in series [2], 95%; in series [3], 95%; in series [4] it was 100%. For the same molecule, in the series on rice (Oryza sativa), the plant injury at 280 g/ha came out at 0%.

With `COC(=O)c1nc(-c2ccc(Cl)c(OC)c2F)nc(N)c1/C=C/Br` [Compound 37, 6-Amino-5-((E)-2-bromovinyl)-2-(4-chloro-2-fluoro-3-methoxyphenyl)pyrimidine-4-carboxylic acid methyl ester], the pest or weed control at 280 g/ha in series [1] is 90%; in series [2] it was 0%; in series [3] it was 90%; in series [4] it was 80%. In addition, in the series with rice (Oryza sativa), the plant injury at 280 g/ha is 10%.

With `COC(=O)c1nc(-c2ccc(Cl)c(OC)c2F)nc(N)c1/C=C/SC` [Compound 38, 6-Amino-2-(4-chloro-2-fluoro-3-methoxyphenyl)-5-((E)-2-methylsulfanylvinyl)pyrimidine-4-carboxylic acid methyl ester], the pest or weed control at 280 g/ha in series [1] came to 100%; in series [2] it was 60%; in series [3], 100%; in series [4] it was 90%. Also, the plant injury at 280 g/ha in the series with rice (Oryza sativa) was determined as 0%.

Consider `COC(=O)c1nc(-c2ccc(Cl)c(OC)c2F)nc(N)c1C(C)F` (stereo not shown) [Compound 39, 6-Amino-2-(4-chloro-2-fluoro-3-methoxyphenyl)-5-(1-fluoroethyl)pyrimidine-4-carboxylic acid methyl ester], for which the pest or weed control at 140 g/ha in series [1] stood at 60%; in series [2] it was 30%; in series [3] it was 85%; in series [4], 80%. In addition, the plant injury at 140 g/ha in the series on rice (Oryza sativa) is 0%.

With `C=Cc1c(N)nc(-c2ccc(Cl)c(OC(F)F)c2F)nc1C(=O)O` [Compound 50, 6-Amino-2-(4-chloro-3-difluoromethoxy-2-fluorophenyl)-5-vinylpyrimidine-4-carboxylic acid], the pest or weed control at 280 g/ha in series [1] is 100%; in series [2], 100%; in series [3], 100%; in series [4] it was 95%. Besides, in the series on rice (Oryza sativa), the plant injury at 280 g/ha is 45%.

Regarding `C=Cc1c(N)nc(-c2ccc(Cl)c(N(C)C)c2F)nc1C(=O)O` [Compound 51, 6-Amino-2-(4-chloro-3-dimethylamino-2-fluorophenyl)-5-vinylpyrimidine-4-carboxylic acid], the pest or weed control at 140 g/ha in series [1] is 100%; in series [2], 95%; in series [3], 90%; in series [4], 100%. In the series on rice (Oryza sativa), the plant injury at 140 g/ha stood at 60%.

Turning to `C=C(F)c1c(N)nc(-c2ccc(Cl)c(OC)c2F)nc1C(=O)O` [Compound 52, 6-Amino-2-(4-chloro-2-fluoro-3-methoxyphenyl)-5-(1-fluorovinyl)pyrimidine-4-carboxylic acid], the pest or weed control at 140 g/ha in series [1] turned out to be 95%; in series [2] it was 90%; in series [3] it was 100%; in series [4] it was 95%. For the same molecule, in the series on rice (Oryza sativa), the plant injury at 140 g/ha was found to be 65%.

`CCc1c(N)nc(-c2ccc(Cl)c(OC)c2F)nc1C(=O)O` [Compound 54, 6-Amino-2-(4-chloro-2-fluoro-3-methoxyphenyl)-5-ethylpyrimidine-4-carboxylic acid]: the pest or weed control at 280 g/ha in series [1] stood at 100%; in series [2] it was 90%; in series [3], 100%; in series [4], 90%. In addition, the plant injury at 280 g/ha in the series with rice (Oryza sativa) was determined as 0%.

Take `C#Cc1c(N)nc(-c2ccc(Cl)c(OC)c2F)nc1C(=O)O` [Compound 56, 6-Amino-2-(4-chloro-2-fluoro-3-methoxyphenyl)-5-ethynylpyrimidine-4-carboxylic acid]: the pest or weed control at 140 g/ha in series [1] came to 95%; in series [2] it was 75%; in series [3], 90%; in series [4], 80%. Besides, in the series on rice (Oryza sativa), the plant injury at 140 g/ha was determined as 0%.

Regarding `COc1c(Cl)ccc(-c2cc(N)c(C)c(C(=O)O)n2)c1F` [Compound 58, 4-Amino-6-(4-chloro-2-fluoro-3-methoxyphenyl)-3-methylpyridine-2-carboxylic acid], the pest or weed control at 280 g/ha in series [1] stood at 50%; in series [2], 50%; in series [3] it was 90%; in series [4] it was 90%. For the same molecule, the plant injury at 280 g/ha with rice (Oryza sativa) worked out at 0%.

As to `C=Cc1c(N)nc(-c2ccc(Cl)c(OC)c2F)nc1C(=O)O` [Compound 63, triethylamine salt of 6-amino-2-(4-chloro-2-fluoro-3-methoxyphenyl)-5-vinylpyrimidine-4-carboxylic acid], the “Post-emergent Weed Control CHEAL” value in series [1] (70 g ai/ha) is 100%. Besides, the “Post-emergent Weed Control ORYSA” value in the series on rice (Oryza sativa) (70 g ai/ha) is recorded as 75%. Moreover, in series [2] (70 g ai/ha), the “Post-emergent Weed Control ECHCG” value was determined as 90%. In series [3] (70 g ai/ha), the “Post-emergent Weed Control EPHHL” value stood at 100%. Moreover, the “Post-emergent Weed Control ABUTH” value in series [4] (70 g ai/ha) was 95%.

For orientation: melting point means the temperature of the solid-liquid transition.
